Literature values, collected in patent publication US20180360817A1, “EXTENDED RELEASE OSMOTIC DOSAGE FORM COMPRISING HIGH METHYLPHENIDATE HYDROCHLORIDE LOAD” (CADILA HEALTHCARE LIMITED, priority 2015, published 2018).
Like-named read-outs stand apart in the source and are kept apart here.

## COC(=O)C(c1ccccc1)C1CCCCN1.Cl (racemic) [Methylphenidate hydrochloride, d,l (racemic) methyl α-phenyl-2-piperidineacetate hydrochloride]
In acetone
  Solubility: slightly soluble
In alcohol
  Solubility: soluble
In chloroform
  Solubility: slightly soluble
In methanol
  Solubility: freely soluble
In water
  Solubility: freely soluble
